Consider 7 sequences from article PMC10136189, “A Tale of 12 Tails: Katanin Severing Activity Affected by Carboxy-Terminal Tail Sequences” (Biomolecules, 2023).

In experiment [1] the target is T1, human GFP-katanin p60 (Homo sapiens, UniProt O75449).
T1 construct: made in house; host or cells: Escherichia coli BL21(DE3)
As to the kind of experiment: in vitro microtubule severing assay (loss of microtubule polymer). It counts as biochemical. As to conditions: for inhibition of katanin severing of microtubules (loss of polymer) / relative potency as inhibitor of katanin binding and severing (comparison in words): inhibitor 0-2 μM; for inhibition of katanin severing of microtubules (loss of polymer): taxol-stabilized rhodamine microtubules, Katanin Activity Buffer pH 7.7, 2 mM ATP, 5 min movies; for relative potency as inhibitor of katanin binding and severing (comparison in words): compared with other CTTs or whole tubulin. Here is the method: (§1) In this work, we use the in vitro microtubule severing assay to quantitatively characterize the microtubule binding and severing ability of human GFP-katanin p60 in the presence of different CTT sequences. First, we ensure that our human GFP-katanin p60 can robustly and reproducibly sever microtubules and completely remove all polymer within 3–5 min (Figure 1A). As each katanin prep has slightly different activity and the activity can fluctuate (Supplemental Figure S1), we perform control experiments each day to determine the optimal katanin concentration needed and to serve as a control without added inhibitors (Figure 1A). For simplicity we use “katanin” to refer to human GFP-katanin p60 for the remainder of this manuscript.
(§2) Flow chambers with 10 μL channels were made by adhering double-stick tape (3M, St. Paul, MN, USA) to a microscope slide and attaching a silanized coverslip cross-wise. Silanized coverslips were UVO sterilized, cleaned with rinses of acetone, ethanol, 0.1 M KOH, and ddH20 before coating with PlusOne Repel-Silane 2% dimethyldichlorosilane (Cytiva, Marlborough, MA, USA). Samples were made in the chambers by flowing through the chamber using a pipette and filter paper to wick from the other side. For severing assays, we first flowed 5% MAB1864 tubulin YL ½ antibody (Merck-Millipore, Billerica, MA, USA) in PEM-100 for three minutes to provide a binding site for microtubules. Second, we flowed 5% (w/v) Pluronic F127 to act as a polymer brush to block the surface, allowing three minutes for incubation. Next, we flowed 10% rhodamine-labeled microtubules diluted 1:100 (final tubulin concentration 454 nM) and allowed them to adhere for three minutes. During the incubation, an aliquot of katanin was rapidly defrosted from −80 °C and diluted to assay concentration. The chamber was then washed with Katanin Activity Buffer (20 mM HEPES pH 7.7, 10% glycerol, 2 mM MgCl2, 2 mM ATP, 0.025 mg/mL BSA, 0.05% F127, 10 mM dithiothreitol (DTT), 15 mg/mL glucose, 0.15 mg/mL catalase, […]) to remove excess unadhered microtubules. The chamber was then situated on the microscope to find a good field for the assay before flowing Katanin Activity Buffer with GFP-katanin and CTT tails at their respective concentrations.
(§3) Imaging was performed using epifluorescence and total internal reflection (TIRF) with a home-built laser illumination system around a Nikon Ti-E microscope (Nikon USA, Melville, NY, USA). Epifluorescence was used to image rhodamine microtubules in the red channel, and TIRF was used to image GFP-katanin illuminating with a 488 nm laser. Images were collected with a 60x, oil-coupled TIRF objective with a numerical aperture of 1.49 (Nikon USA, Melville, NY, USA). The two-color imaging was performed using shuttering the red channel (400–800 ms exposure) and green channel (70–200 ms exposure) sequentially. The 5 min movies recorded with 3 s intervals using Nikon Elements software (Nikon USA, Melville, NY, USA) driving an Ixon EMCCD camera (Andor, Belfast, Northern Ireland) with a final pixel size of 160 nm. Movie data were saved as a 16-bit time series as nd2 files with metadata. Movies were started recording before the GFP-katanin mixture was flowed while imaging. After the 5 min, a new field of view was imaged to ensure that the loss of microtubule polymer was universal in the chamber and not due to imaging conditions.
Each of the 64 treatments were run two to three times for replication and for obtaining 15–20 MTs for analysis. Four control chambers were run each day to ensure chamber activity was caused by the respective treatment conditions. […] Next, the concentration needed to sever microtubules within 2–3 min is determined in the presence of ATP. Once the optimal katanin concentration is determined, the assay is repeated in the absence of ATP to again test the imaging conditions in the presence of a GFP-katanin binding to microtubules. […]

Experiment [2] has as its target T1, human GFP-katanin p60. The experiment is described as follows: GFP-katanin binding to microtubules (TIRF intensity) in the severing assay. As to conditions: inhibitor 0-2 μM; GFP intensity normalized to same day control without inhibitor; pH 7.7, 2 mM ATP. How it is done:
as §1, §2
as §3, with “Movie data were saved as a 16-bit time series as nd2 files with metadata. Movies were started recording before the GFP-katanin mixture was flowed while imaging. After the 5 min, a new field of view was imaged to ensure that the loss of microtubule polymer was universal in the chamber and not due to imaging conditions.” left out
Each of the 64 treatments were run two to three times for replication and for obtaining 15–20 MTs for analysis. […] Next, the concentration needed to sever microtubules within 2–3 min is determined in the presence of ATP. Once the optimal katanin concentration is determined, the assay is repeated in the absence of ATP to again test the imaging conditions in the presence of a GFP-katanin binding to microtubules. […]

T1 sequence (O75449 whole entry): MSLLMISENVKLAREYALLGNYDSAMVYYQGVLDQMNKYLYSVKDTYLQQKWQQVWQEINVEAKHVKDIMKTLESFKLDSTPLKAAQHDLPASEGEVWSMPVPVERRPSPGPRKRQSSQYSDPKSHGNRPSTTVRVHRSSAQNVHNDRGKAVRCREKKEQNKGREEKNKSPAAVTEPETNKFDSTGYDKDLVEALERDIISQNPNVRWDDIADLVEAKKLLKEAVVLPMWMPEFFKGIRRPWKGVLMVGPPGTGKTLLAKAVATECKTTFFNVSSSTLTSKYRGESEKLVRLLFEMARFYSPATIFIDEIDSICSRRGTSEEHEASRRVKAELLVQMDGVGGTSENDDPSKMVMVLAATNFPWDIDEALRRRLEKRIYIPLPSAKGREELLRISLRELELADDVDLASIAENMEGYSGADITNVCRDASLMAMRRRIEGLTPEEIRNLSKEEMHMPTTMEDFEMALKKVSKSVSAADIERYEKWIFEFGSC

Turning to “A T A EEEED F G EE A EEE Y [Beta5-A+Y, artificial beta5 CTT with the last amino acid (A) replaced with a tyrosine]”, the “inhibition of katanin severing of microtubules (loss of polymer)” value (from here on “inhibition … (loss of polymer)”) at human GFP-katanin p60 [1] is given as “far less potent as a katanin inhibitor”. The “inhibition of GFP-katanin binding to microtubules” value (from here on “inhibition of GFP-katanin binding”) at human GFP-katanin p60 [2] is reported as “does not affect katanin binding”.
On to “A T A EEEED F G EE A EEE A [Beta5 (TUNN/TUBB5)]”, for which the “relative potency as inhibitor of katanin binding and severing (comparison in words)” value is listed as “most potent inhibitor of the CTTs we tested” on human GFP-katanin p60 [1] (listed as beta5 CTT) and “better at inhibiting katanin than whole tubulin” at human GFP-katanin p60 [1] (listed as beta5 tubulin CTT). Besides, on human GFP-katanin p60 [1], the “inhibition … (loss of polymer)” value was “severing is inhibited”.
For the sequence “DSFEEENEGEEF [alpha8, human alpha8 tubulin tail, only alpha tail with a C-terminal F; hydrophobicity calculated, not tested]”, the “predicted ability to inhibit katanin severing” value on human GFP-katanin p60 [1] (prediction from hydrophobicity and C-terminal phenylalanine, not tested) is “unable to inhibit katanin severing”.
Take A T A EEEEEEEEEE [E10]: the “inhibition … (loss of polymer)” value on human GFP-katanin p60 [1] is “can inhibit”. On human GFP-katanin p60 [2], the “inhibition of GFP-katanin binding” value was “can inhibit”.
As for “A T A EEEED M Y EDDDEE S E A Q G P K [Beta3 (TUBB3)]”, the “inhibition … (loss of polymer)” value against human GFP-katanin p60 [1] is listed as “cannot inhibit katanin severing”. In addition, the “inhibition of GFP-katanin binding” value on human GFP-katanin p60 [2] is “little inhibition of GFP-katanin binding”.
As for A T A DDDDDDDDDD [D10], on human GFP-katanin p60 [1], the “inhibition … (loss of polymer)” value is on record as “can inhibit”. At human GFP-katanin p60 [2], the “inhibition of GFP-katanin binding” value is on record as “can inhibit”.
Regarding “A T A DE Q G E F EEEE G EDE A [Beta2 (TUBB2A)]”, at human GFP-katanin p60 [1], the “inhibition … (loss of polymer)” value is given as “more beta2a CTT is needed to inhibit”. Further, on human GFP-katanin p60 [2], the “inhibition of GFP-katanin binding” value was “more beta2a CTT is needed to inhibit”.
